Values of other authors as cited in patent US5547668A, “Conjugates of folate anti-effector cell antibodies” (The Board of Trustees of The University of Illinois, priority 1995, dated 1996).

System: FR

C#CCN(Cc1ccc2nc(N)[nH]c(=O)c2c1)c1ccc(C(=O)N[C@@H](CCC(=O)O)C(=O)O)cc1 [CB3717, N^10-propargyl-5,8-dideazafolic acid]
affinity for the FR: bind with high affinity

C#CCN(Cc1ccc2nc(C)[nH]c(=O)c2c1)c1ccc(C(=O)N[C@@H](CCC(=O)O)C(=O)O)cc1 [ICI-198,583, 2-deamino-2-methyl-N^10-propargyl-5,8-dideazafolic acid]
affinity for the FR: bind with high affinity

CN(Cc1cnc2nc(N)nc(N)c2n1)c1ccc(C(=O)N[C@@H](CCC(=O)O)C(=O)O)cc1 [MTX, methotrexate]
affinity for the FR: does not bind to MTX with high affinity
